Measured values as given in patent publication US20230151034A1 (COCRYSTAL PHARMA, INC., priority 2020, published 2023).
Read-outs that look alike come from different tables or passages of the source.

Legend:
[1] = biological target: HuNV GGII.4 Norovirus protease (Norovirus GII.4 (human norovirus genogroup II genotype 4), UniProt P54634); assay: Norovirus protease FRET assay (HuNV GGII.4); assay type: biochemical
[2] = biological target: Norwalk GGI.1 Norovirus protease (Norovirus, UniProt Q83883); assay: Noro-Norwalk FRET protease assay (Norwalk GGI.1); assay type: biochemical, Norwalk virus
Outline: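 IC50 values derive from FRET fluorescence after protease cleavage of quenched peptide (Edans-DFHLQ/GP-Dabcyl or 5-FAM/TAMRA). For Norwalk, 10 μM substrate and 1-7 μM enzyme ran 90 min at 37° C in pH 8 HEPES buffer, compounds 3-fold from 200 μM to 10.2 nM, read 473/519 nm.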

SARS2 protease = SARS2 protease (Severe acute respiratory syndrome coronavirus 2, UniProt P0DTD1); assay: SARS-CoV-2 protease inhibition assay (SARS2 FRET protease assay); assay type: biochemical
Outline: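 SARS-CoV-2 protease (25 nM) was incubated for 30 min at 30 °C with 1.3 μM quenched 5-FAM/TAMRA peptide substrate and compound (3-fold dilutions, 20 μM–1.0 nM). The buffer was 20 mM HEPES-Na pH 7, 120 mM NaCl, 0.4 mM EDTA, 0.01% Triton, 5% glycerol and 4 mM DTT. Fluorescence was read at ex 473 and em 519 nm, and IC50 was derived.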

[3] = Table D, FRET protease assay, read-out: HuNV GGII.4 IC50
[4] = Table D, FRET protease assay, read-out: Norwalk GGI.1 IC50
[5] = Table E, SARS-CoV-2 protease inhibition, read-out: IC50
[6] = Table C, FRET protease assay, read-out: HuNV GGII.4 IC50
[7] = Table C, FRET protease assay, read-out: Norwalk GGI.1 IC50

Norwalk GGI.1 Norovirus protease, sequence (Q83883 1101-1281): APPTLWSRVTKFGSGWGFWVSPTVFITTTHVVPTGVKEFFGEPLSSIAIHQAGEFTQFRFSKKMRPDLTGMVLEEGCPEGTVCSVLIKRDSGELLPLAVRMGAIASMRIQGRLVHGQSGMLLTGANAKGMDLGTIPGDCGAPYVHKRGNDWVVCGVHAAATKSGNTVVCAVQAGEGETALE
HuNV GGII.4 Norovirus protease, sequence (P54634 1009-1189): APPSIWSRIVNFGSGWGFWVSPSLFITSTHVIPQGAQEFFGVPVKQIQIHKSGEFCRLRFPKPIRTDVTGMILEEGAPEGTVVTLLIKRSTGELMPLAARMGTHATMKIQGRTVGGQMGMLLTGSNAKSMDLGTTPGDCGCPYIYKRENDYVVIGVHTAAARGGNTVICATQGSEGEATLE

| Compound | IC50 [1, 3] [µM] | IC50 [2, 4] [µM] | IC50 (SARS2 protease; [5]) [µM] | IC50 [1, 6] [µM] | IC50 [2, 7] [µM] | IC50 [1] [µM] | IC50 [2] [µM] | IC50 (SARS2 protease) [µM] |
| --- | --- | --- | --- | --- | --- | --- | --- | --- |
| CON(C)C(=O)C1CC(C(=O)N(C)C)CCCCCC(Cc2ccccc2)OC(=O)N[C@@H](CC(C)C)C(=O)N1 (stereo in doubt) [Compound B43, (4S,7S)-15-benzyl-4-isobutyl-N7-methoxy-N7,N9,N9-trimethyl-2,5-dioxo-1-oxa-3,6-diazacyclopentadecane-7,9-dicarboxamide] | 105 | 105 | > 200 | – | – | – | – | – |
| CCCCCCCC1CC/C=C/CC(C(=O)NC)C[C@@H](C(=O)N(C)OC)NC(=O)C(CC(C)C)NC(=O)O1 (single isomer, unassigned) [Compound B37] | > 200 | > 200 | > 200 | – | – | – | – | – |
| CCOP(=O)(OCC)C(O)[C@@H]1CC(C(=O)NC)C/C=C/CCC(Cc2ccccc2)OC(=O)N[C@@H](CC(C)C)C(=O)N1 (stereo partly drawn) [Compound B27, Diethyl (((4S,7S,E)-15-benzyl-4-isobutyl-9-(methylcarbamoyl)-2,5-dioxo-1-oxa-3,6-diazacyclopentadec-11-en-7-yl)(hydroxy)methyl)phosphonate] | 57.9 | 57.9 | > 200 | – | – | – | – | – |
| CCOP(=O)(OCC)C(O)[C@H](CCC(=O)N(CC)CCc1ccccc1)NC(=O)[C@H](CC1CCCCC1)NC(=O)OCc1cccc(Cl)c1 (stereo partly drawn) [Compound A50, 3-Chlorobenzyl ((2S)-3-cyclohexyl-1-(((2S)-1-(diethoxyphosphoryl)-5-(ethyl(phenethyl)amino)-1-hydroxy-5-oxopentan-2-yl)amino)-1-oxopropan-2-yl)carbamate] | – | – | 9.7 | 95.7 | 97.4 | – | – | – |
| CCS(=O)(=O)NCCN(C)C(=O)CC[C@@H](C=O)NC(=O)[C@H](CC1CCCCC1)NC(=O)OCc1cccc(Cl)c1 (stereo in doubt) [Compound A38, 3-Chlorobenzyl ((S)-3-cyclohexyl-1-(((S)-5-((2-(ethylsulfonamido)ethyl)(methyl)amino)-1,5-dioxopentan-2-yl)amino)-1-oxopropan-2-yl)carbamate] | – | – | 36 | 30.6 | 10.1 | – | – | – |
| CON(C)C(=O)[C@H](CCC(=O)N(C)CCc1ccccc1Cl)NC(=O)[C@H](CC1CCCCC1)NC(=O)OCc1cccc(Cl)c1 (stereo in doubt) [Compound A39, 3-Chlorobenzyl ((S)-1-(((S)-5-((2-chlorophenethyl)(methyl)amino)-1-(methoxy(methyl)amino)-1,5-dioxopentan-2-yl)amino)-3-cyclohexyl-1-oxopropan-2-yl)carbamate] | – | – | 5.3 | 100 | 119 | – | – | – |
| O=C[C@H](CCC(=O)N1CCOC(c2ccccc2)C1)NC(=O)[C@H](CC1CCCCC1)NC(=O)OCc1cccc(Cl)c1 (stereo in doubt) [Compound A45, 3-Chlorobenzyl ((2S)-3-cyclohexyl-1-(((2S)-1,5-dioxo-5-(2-phenylmorpholino)pentan-2-yl)amino)-1-oxopropan-2-yl)carbamate] | – | – | > 200 | 18.8 | 11 | – | – | – |
| CCOP(=O)(OCC)C(O)[C@H](CCC(=O)N(C)CCc1ccccc1)NC(=O)[C@H](CC1CCCCC1)NC(=O)OCc1cccc(Cl)c1 (stereo partly drawn) [Compound A15, 3-Chlorobenzyl ((2S)-3-cyclohexyl-1-(((2S)-1-(diethoxyphosphoryl)-1-hydroxy-5-(methyl(phenethyl)amino)-5-oxopentan-2-yl)amino)-1-oxopropan-2-yl)carbamate] | – | – | > 200 | 139 | > 200 | – | – | – |
| CCOCCOCCN(C)C(=O)CC[C@@H](C=O)NC(=O)[C@H](CC1CCCCC1)NC(=O)OCc1cccc(Cl)c1 [Compound A25, 3-Chlorobenzyl ((13S,16S)-17-cyclohexyl-13-formyl-9-methyl-10,15-dioxo-3,6-dioxa-9,14-diazaheptadecan-16-yl)carbamate] | – | – | > 200 | 39.4 | 17.2 | – | – | – |
| CCCC1CCCC/C=C/CC(C(=O)N(C)Cc2ccc(OC)cc2OC)C[C@@H](C(O)P(=O)(OCC)OCC)NC(=O)[C@H](CC(C)C)NC1=O (stereo partly drawn) [Compound B25, Diethyl (((2S,5S,E)-7-((2,4-dimethoxybenzyl)(methyl)carbamoyl)-2-isobutyl-3,16-dioxo-15-propyl-1,4-diazacyclohexadec-9-en-5-yl)(hydroxy)methyl)phosphonate] | – | – | – | – | – | 177 | 177 | > 200 |
| CCCCCN(C)C(=O)CC[C@H](NC(=O)[C@H](CC1CCCCC1)NC(=O)OCc1cccc(Cl)c1)C(O)P(=O)(OCC)OCC (stereo partly drawn) [Compound A9, 3-chlorobenzyl ((2S)-3-cyclohexyl-1-(((2S)-1-(diethoxyphosphoryl)-1-hydroxy-5-(methyl(pentyl)amino)-5-oxopentan-2-yl)amino)-1-oxopropan-2-yl)carbamate] | – | – | > 200 | 154 | 14 | – | – | – |
| CN1C(=O)CCC(NC(=O)[C@H](CC2CCCCC2)NC(=O)OCc2cccc(Cl)c2)C1O (stereo partly drawn) [Compound A2, 3-chlorobenzyl ((2S)-3-cyclohexyl-1-((2-hydroxy-1-methyl-6-oxopiperidin-3-yl)amino)-1-oxopropan-2-yl)carbamate] | – | – | > 200 | 127 | 169 | – | – | – |
